In the supplement of paper PMC10307832:

Compound: Cc1ccc(NC(=O)c2ccc(CN3CCN(C)CC3)cc2)cc1Nc1nc(-c2cccnc2)cs1 [Masitinib] + CC(=O)c1c(C)c2cnc(Nc3ccc(N4CCNCC4)cn3)nc2n(C2CCCC2)c1=O [Palbociclib] (partner 0.5 µM)
Experiment: relative viability (nuclei count vs DMSO), 5 days (fraction); higher = more cells survive
Conditions: first compound 0.01 µM
Outline: (§1)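 A single step with final 0.05% Triton X-100, 1% formaldehyde and 1 ug/ml Hoechst fixed the cells and stained nuclei 5 days after treatment. Lung cancer cell lines in 1536-well plates had been treated by pin tool the day after seeding with one drug alone or a fixed anchor-drug dose plus five library-drug doses (not always all listed) in √10 steps, and nuclei were counted on 4× images. Relative viability is the ratio of nuclei in treated wells to nuclei in vehicle wells, taken as the median of duplicate plates.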

Cell Line	relative viability
NCI-H522	1.03
NCI-H838	0.205
NCI-H1651	0.388
NCI-H1734	0.362
NCI-H2009	0.207
LU99A	0.431
PC-14	0.57
NCI-H2228	0.518
EMC-BAC-2	0.434
NCI-H2087	0.211
NCI-H647	0.419
LK-2	0.691
NCI-H2126	0.33
NCI-H2342	0.532
NCI-H1793	0.282
H3255	0.294
COR-L23	0.296
COR-L 105	0.422
LOU-NH91	0.564
ChaGo-K-1	0.954

Cell Line	relative viability
NCI-H358	0.123
NCI-H3122	0.163
HOP-62	0.455
HCC-44	0.973
SW 900	0.462
LXF-289	0.553
BEN	0.42
HARA	0.271
NCI-H1648	0.297
HCC-78	0.436
NCI-H441	0.232
LCLC-97TM1	0.192
NCI-H2023	0.311
A-427	0.453
NCI-H460	0.0985
NCI-H727	0.599
NCI-H1755	0.428
NCI-H520	0.27
NCI-H2405	0.48
SW 1573	0.357

Cell Line	relative viability
NCI-H1395	0.593
201T	0.326
NCI-H1975	0.424
HCC-827	0.395
NCI-H2347	0.381
NCI-H1355	0.37
NCI-H650	0.33
CAL-12T	0.445
NCI-H1666	0.665
EPLC-272H	0.299
NCI-H23	0.439
NCI-H1437	0.25
NCI-H322M	0.483
NCI-H1792	0.572
NCI-H2085	0.432
HCC-15	0.658
PC-3 [JPC-3]	0.438
EKVX	0.35
LC-2-ad	0.494
NCI-H1650	0.242

Same assay, conditions: first compound 0.03162 µM

Cell Line	relative viability
NCI-H522	1.07
NCI-H838	0.182
NCI-H1651	0.505
NCI-H1734	0.327
NCI-H2009	0.214
LU99A	0.417
PC-14	0.323
LCLC-103H	0.471
NCI-H2228	0.723
EMC-BAC-2	0.473
NCI-H2087	0.221
HCC-366	0.39
NCI-H647	0.369
LK-2	0.697
NCI-H2126	0.341
NCI-H2342	0.524
NCI-H1793	0.279
H3255	0.35
COR-L23	0.257
COR-L 105	0.394
LOU-NH91	0.47

Cell Line	relative viability
ChaGo-K-1	0.952
NCI-H358	0.138
NCI-H3122	0.197
HOP-62	0.447
HCC-44	0.95
SW 900	0.458
LXF-289	0.6
BEN	0.431
NCI-H1648	0.313
HCC-78	0.451
NCI-H441	0.211
LCLC-97TM1	0.15
NCI-H2023	0.385
A-427	0.557
NCI-H460	0.105
NCI-H727	0.692
NCI-H1755	0.474
NCI-H520	0.21
NCI-H2405	0.504
SW 1573	0.372
NCI-H1395	0.653

Cell Line	relative viability
201T	0.386
NCI-H1975	0.517
HCC-827	0.466
NCI-H2347	0.389
NCI-H1355	0.601
NCI-H650	0.332
CAL-12T	0.333
NCI-H1666	0.63
EPLC-272H	0.331
NCI-H23	0.482
NCI-H1915	0.518
NCI-H1437	0.32
NCI-H322M	0.487
NCI-H1792	0.448
NCI-H2085	0.493
HCC-15	0.74
NCI-H1944	0.295
PC-3 [JPC-3]	0.498
EKVX	0.333
LC-2-ad	0.474
NCI-H1650	0.321

Same assay, conditions: first compound 0.1 µM

Cell Line	relative viability
NCI-H522	1.31
NCI-H838	0.22
NCI-H1651	0.419
NCI-H1734	0.393
NCI-H2009	0.236
LU99A	0.419
PC-14	0.636
LCLC-103H	0.458
NCI-H2228	1.12
EMC-BAC-2	0.509
NCI-H2087	0.234
HCC-366	0.388
NCI-H647	0.49
LK-2	0.666
NCI-H2126	0.376
NCI-H2342	0.566
NCI-H1793	0.348
H3255	0.299
COR-L23	0.298
COR-L 105	0.435
LOU-NH91	0.57

Cell Line	relative viability
ChaGo-K-1	0.966
NCI-H358	0.15
NCI-H3122	0.227
HOP-62	0.59
HCC-44	0.985
SW 900	0.575
LXF-289	0.655
BEN	0.51
HARA	0.244
NCI-H1648	0.289
HCC-78	0.497
NCI-H441	0.262
LCLC-97TM1	0.25
NCI-H2023	0.323
A-427	0.548
NCI-H460	0.14
NCI-H727	0.668
NCI-H1755	0.448
NCI-H520	0.263
NCI-H2405	0.508
SW 1573	0.446

Cell Line	relative viability
NCI-H1395	0.643
201T	0.364
NCI-H1975	0.468
HCC-827	0.389
NCI-H2347	0.408
NCI-H1355	0.4
NCI-H650	0.331
CAL-12T	0.455
NCI-H1666	0.696
EPLC-272H	0.327
NCI-H23	0.598
NCI-H1437	0.248
NCI-H322M	0.426
NCI-H1792	0.701
NCI-H2085	0.486
HCC-15	0.799
PC-3 [JPC-3]	0.553
EKVX	0.343
LC-2-ad	0.544
NCI-H1650	0.254

Same assay, conditions: first compound 0.3162 µM

Cell Line	relative viability
NCI-H522	0.849
NCI-H838	0.192
NCI-H1651	0.535
NCI-H1734	0.394
NCI-H2009	0.17
LU99A	0.428
PC-14	0.57
LCLC-103H	0.511
NCI-H2228	0.844
EMC-BAC-2	0.524
NCI-H2087	0.198
HCC-366	0.407
NCI-H647	0.325
LK-2	0.76
NCI-H2126	0.337
NCI-H2342	0.507
NCI-H1793	0.303
H3255	0.321
COR-L23	0.329
COR-L 105	0.382
LOU-NH91	0.562

Cell Line	relative viability
ChaGo-K-1	0.972
NCI-H358	0.133
NCI-H3122	0.18
HOP-62	0.438
HCC-44	0.863
SW 900	0.502
LXF-289	0.627
BEN	0.513
HARA	0.254
HCC-78	0.488
NCI-H441	0.188
LCLC-97TM1	0.285
NCI-H2023	0.259
A-427	0.525
NCI-H460	0.071
NCI-H727	0.621
NCI-H1755	0.491
NCI-H520	0.243
NCI-H2405	0.499
SW 1573	0.41
NCI-H1395	0.562

Cell Line	relative viability
201T	0.369
NCI-H1975	0.399
HCC-827	0.613
NCI-H2347	0.422
NCI-H1355	0.292
NCI-H650	0.318
CAL-12T	0.305
NCI-H1666	0.628
EPLC-272H	0.295
NCI-H23	0.575
NCI-H1915	0.536
NCI-H1437	0.302
NCI-H322M	0.531
NCI-H1792	0.611
NCI-H2085	0.491
HCC-15	0.739
NCI-H1944	0.312
PC-3 [JPC-3]	0.526
LC-2-ad	0.47
NCI-H1650	0.298

Same assay, conditions: first compound 1 µM

Cell Line	relative viability
NCI-H522	1.13
NCI-H838	0.244
NCI-H1651	0.523
NCI-H1734	0.335
NCI-H2009	0.204
LU99A	0.418
PC-14	0.621
LCLC-103H	0.475
NCI-H2228	0.486
EMC-BAC-2	0.51
NCI-H2087	0.237
HCC-366	0.375
NCI-H647	0.375
LK-2	0.762
NCI-H2126	0.379
NCI-H2342	0.529
NCI-H1793	0.259
H3255	0.326
COR-L23	0.279
COR-L 105	0.348
LOU-NH91	0.527
ChaGo-K-1	0.897

Cell Line	relative viability
NCI-H358	0.136
NCI-H3122	0.175
HOP-62	0.506
HCC-44	0.962
SW 900	0.513
LXF-289	0.595
BEN	0.46
HARA	0.254
NCI-H1648	0.228
HCC-78	0.534
NCI-H441	0.191
LCLC-97TM1	0.208
NCI-H2023	0.331
A-427	0.488
NCI-H460	0.126
NCI-H727	0.618
NCI-H1755	0.402
NCI-H520	0.197
NCI-H2405	0.514
SW 1573	0.374
NCI-H1395	0.595
201T	0.375

Cell Line	relative viability
NCI-H1975	0.587
HCC-827	0.441
NCI-H2347	0.444
NCI-H1355	0.343
NCI-H650	0.318
CAL-12T	0.502
NCI-H1666	0.617
EPLC-272H	0.329
NCI-H23	0.527
NCI-H1915	0.642
NCI-H1437	0.305
NCI-H322M	0.454
NCI-H1792	0.611
NCI-H2085	0.459
HCC-15	0.77
NCI-H1944	0.307
PC-3 [JPC-3]	0.466
EKVX	0.295
LC-2-ad	0.503
NCI-H1650	0.376

Compound: Cc1ccc(NC(=O)c2ccc(CN3CCN(C)CC3)cc2)cc1Nc1nc(-c2cccnc2)cs1 [Masitinib] + O=C(c1cc(Cc2n[nH]c(=O)c3ccccc23)ccc1F)N1CCN(C(=O)C2CC2)CC1 [Olaparib] (partner 8 µM)
Experiment: as above
Conditions: first compound 0.01 µM
Outline: as §1

Cell Line	relative viability
NCI-H522	0.609
NCI-H838	0.835
NCI-H1651	0.155
EBC-1	0.679
NCI-H1734	0.557
NCI-H2009	0.733
LU99A	0.27
PC-14	0.277
NCI-H596	0.593
NCI-H2228	0.756
EMC-BAC-2	0.457
NCI-H2087	0.73
Calu-6	0.53
NCI-H1703	0.308
NCI-H647	0.572
LK-2	0.8
NCI-H2126	0.916
